# Laboratory results reported in ChEMBL document CHEMBL2321712 (ACS Med Chem Lett, 2013).
# Calls of active or inactive are those of the source. The rule behind the calls is not given here.
# Legend:
# [1] = target: Cyclin-dependent kinase 4 (Homo sapiens, UniProt P11802); test: Inhibition of CDK4 (unknown origin); format: single protein
# [2] = target: Fibroblast growth factor receptor 1 (Homo sapiens, UniProt P11362); test: Inhibition of FGFR1 (unknown origin); format: single protein
# [3] = target: Cyclin-dependent kinase 2 (Homo sapiens, UniProt P24941); test: Inhibition of CDK2 (unknown origin); format: single protein
# [4] = target: Vascular endothelial growth factor receptor 2 (Homo sapiens, UniProt P35968); test: Inhibition of KDR (unknown origin); format: single protein
# Chain of Vascular endothelial growth factor receptor 2 (P35968 whole entry): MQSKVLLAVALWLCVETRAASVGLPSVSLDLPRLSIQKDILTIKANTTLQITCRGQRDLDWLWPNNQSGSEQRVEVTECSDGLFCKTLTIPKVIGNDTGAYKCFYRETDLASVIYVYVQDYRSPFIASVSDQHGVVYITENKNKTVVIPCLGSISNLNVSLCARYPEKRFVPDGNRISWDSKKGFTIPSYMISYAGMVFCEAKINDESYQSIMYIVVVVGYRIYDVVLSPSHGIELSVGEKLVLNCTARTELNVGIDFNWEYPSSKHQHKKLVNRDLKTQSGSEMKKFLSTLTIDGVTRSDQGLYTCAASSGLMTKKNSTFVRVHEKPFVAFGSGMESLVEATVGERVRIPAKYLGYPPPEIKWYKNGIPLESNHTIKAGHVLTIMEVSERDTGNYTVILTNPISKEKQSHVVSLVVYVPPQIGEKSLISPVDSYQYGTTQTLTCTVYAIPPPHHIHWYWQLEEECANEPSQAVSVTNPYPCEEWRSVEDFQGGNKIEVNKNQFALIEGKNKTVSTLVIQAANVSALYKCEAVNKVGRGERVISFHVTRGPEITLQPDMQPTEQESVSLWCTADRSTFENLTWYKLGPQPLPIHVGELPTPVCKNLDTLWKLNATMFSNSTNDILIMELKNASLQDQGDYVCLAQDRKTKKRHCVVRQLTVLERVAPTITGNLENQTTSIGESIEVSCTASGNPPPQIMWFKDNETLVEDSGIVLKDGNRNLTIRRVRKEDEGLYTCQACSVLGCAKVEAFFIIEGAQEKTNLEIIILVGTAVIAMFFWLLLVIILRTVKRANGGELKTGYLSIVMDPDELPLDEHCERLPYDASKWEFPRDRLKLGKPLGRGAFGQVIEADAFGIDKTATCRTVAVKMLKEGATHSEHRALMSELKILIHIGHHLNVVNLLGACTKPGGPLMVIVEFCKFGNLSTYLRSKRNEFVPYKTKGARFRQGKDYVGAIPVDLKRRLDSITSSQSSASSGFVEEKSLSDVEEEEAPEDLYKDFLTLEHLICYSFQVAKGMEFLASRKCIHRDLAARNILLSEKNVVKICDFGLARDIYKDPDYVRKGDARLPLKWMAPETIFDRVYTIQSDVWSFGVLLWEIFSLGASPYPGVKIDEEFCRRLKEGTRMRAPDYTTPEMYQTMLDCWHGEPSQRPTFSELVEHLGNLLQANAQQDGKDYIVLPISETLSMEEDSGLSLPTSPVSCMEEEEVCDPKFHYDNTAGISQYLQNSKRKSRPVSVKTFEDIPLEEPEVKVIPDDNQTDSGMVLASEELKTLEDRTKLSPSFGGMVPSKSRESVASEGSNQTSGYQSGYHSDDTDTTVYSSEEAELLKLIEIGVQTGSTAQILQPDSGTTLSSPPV
# [5] = Terminal half life in mouse at 5 mg/kg, iv; format: ADME, organism-based; parameters: dose 5 mg/kg, route intravenous; conditions: in vivo, read-out: beta t1/2 (converted)
# [6] = Total clearance in mouse at 5 mg/kg, iv; format: ADME, organism-based; parameters: dose 5 mg/kg, route intravenous; conditions: in vivo
# [7] = tested on: HUVEC; test: Antiangiogenic activity in HUVEC assessed as inhibition of PDGF-induced cell proliferation; format: functional, cell-based; conditions: Homo sapiens
# [8] = Antiproliferative activity against human melanoma cells by MTT assay; format: functional, cell-based; conditions: Melanoma cell
# [9] = Antiproliferative activity against human oral epidermoid cancer cells by MTT assay; format: functional, cell-based; conditions: Cancer cell lines
# [10] = Antiproliferative activity against human prostate cancer cells by MTT assay; format: functional, cell-based; conditions: Cancer cell lines
# [11] = Antiproliferative activity against human lung cancer cells by MTT assay; format: functional, cell-based; conditions: Cancer cell lines
# [12] = Antiproliferative activity against human breast cancer cells by MTT assay; format: functional, cell-based; conditions: Cancer cell lines
# [13] = Antiproliferative activity against human colon cancer cells by MTT assay; format: functional, cell-based; conditions: Cancer cell lines
# [14] = target: T1, Aurora kinase A (Homo sapiens, UniProt O14965); test: Inhibition of aurora-A (unknown origin)
# T1 sequence (O14965 whole entry): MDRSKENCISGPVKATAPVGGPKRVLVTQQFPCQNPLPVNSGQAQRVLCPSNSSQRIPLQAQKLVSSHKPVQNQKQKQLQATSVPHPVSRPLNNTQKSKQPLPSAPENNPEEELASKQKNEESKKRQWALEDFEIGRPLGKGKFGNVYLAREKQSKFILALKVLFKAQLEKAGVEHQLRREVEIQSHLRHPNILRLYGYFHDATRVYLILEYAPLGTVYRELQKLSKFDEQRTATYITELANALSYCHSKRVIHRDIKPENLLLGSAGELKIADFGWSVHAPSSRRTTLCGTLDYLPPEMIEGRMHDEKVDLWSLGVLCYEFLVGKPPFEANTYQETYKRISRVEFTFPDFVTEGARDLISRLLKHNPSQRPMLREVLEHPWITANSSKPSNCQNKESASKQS
# [15] = tested on: HUVEC; test: Antiangiogenic activity in HUVEC assessed as inhibition of VEGF-induced cell proliferation; format: functional, cell-based; conditions: Homo sapiens
# [16] = tested on: HUVEC; test: Antiangiogenic activity in HUVEC assessed as inhibition of bFGF-induced cell proliferation; format: functional, cell-based; conditions: Homo sapiens
# [17] = tested on: A549; test: Antitumor activity against human A549 cells xenografted in mouse assessed as increase in mouse survival at 25 to 50 mg/kg, po qd up to 32 days; format: functional; conditions: dose mg/kg 25-50
# [18] = tested on: HCT-116; test: Antitumor activity against human HCT116 cells xenografted in mouse assessed as increase in mouse survival at 25 to 50 mg/kg, po qd up to 32 days; format: functional; conditions: dose mg/kg 25-50
# [19] = tested on: LoVo; test: Antitumor activity against human LoVo cells xenografted in mouse assessed as increase in mouse survival at 25 to 50 mg/kg, po qd up to 32 days; format: functional; conditions: dose mg/kg 25-50
# [20] = tested on: MDA-MB-231; test: Antitumor activity against human MDA-MB-231 cells xenografted in mouse assessed as increase in mouse survival at 25 to 50 mg/kg, po qd up to 32 days; format: functional; conditions: dose mg/kg 25-50
# [21] = tested on: Mus musculus; test: Toxicity in human A549 cells xenografted mouse assessed as changes in body weight and gross observation at 25 to 50 mg/kg, po qd up to 32 days; format: organism-based; parameters: dose 25-50 mg/kg, route oral; conditions: in vivo, 768 h
# [22] = tested on: Mus musculus; test: Toxicity in human HCT116 cells xenografted mouse assessed as changes in body weight and gross observation at 25 to 50 mg/kg, po qd up to 32 days; format: organism-based, HCT-116; parameters: dose 25-50 mg/kg, route oral; conditions: in vivo, 768 h
# [23] = tested on: Mus musculus; test: Toxicity in human LoVo cells xenografted mouse assessed as changes in body weight and gross observation at 25 to 50 mg/kg, po qd up to 32 days; format: organism-based; parameters: dose 25-50 mg/kg, route oral; conditions: in vivo, 768 h
# [24] = tested on: Mus musculus; test: Toxicity in human MDA-MB-231 cells xenografted mouse assessed as changes in body weight and gross observation at 25 to 50 mg/kg, po qd up to 32 days; format: organism-based; parameters: dose 25-50 mg/kg, route oral; conditions: in vivo, 768 h
# [25] = tested on: A549; test: Antitumor activity against human A549 cells xenografted in mouse assessed as tumor growth inhibition at 1.56 mg/kg, po qd up to 32 days; format: functional, organism-based; parameters: dose 1.56 mg/kg
# [26] = tested on: HCT-116; test: Antitumor activity against human HCT116 cells xenografted in mouse assessed as tumor growth inhibition at 1.56 mg/kg, po qd up to 32 days; format: functional, organism-based; parameters: dose 1.56 mg/kg
# [27] = tested on: MDA-MB-231; test: Antitumor activity against human MDA-MB-231 cells xenografted in mouse assessed as tumor regression at 25 mg/kg, po qd up to 32 days; format: functional, organism-based; parameters: dose 25 mg/kg
# [28] = tested on: MDA-MB-231; test: Antitumor activity against human MDA-MB-231 cells xenografted in mouse assessed as tumor regression at 50 mg/kg, po qd up to 32 days; format: functional, organism-based; parameters: dose 50 mg/kg
# [29] = tested on: MDA-MB-231; test: Antitumor activity against human MDA-MB-231 cells xenografted in mouse assessed as tumor growth inhibition at 50 mg/kg, po qd up to 32 days; format: functional, organism-based; parameters: dose 50 mg/kg
# [30] = Oral bioavailability in monkey at 10 mg/kg; format: ADME, organism-based, Macaca mulatta; conditions: rhesus monkey, in vivo
# [31] = Cmax in monkey at 10 mg/kg, po; format: ADME, organism-based, Macaca mulatta; parameters: dose 10 mg/kg, route oral; conditions: rhesus monkey, in vivo
# [32] = AUC (0 to 24 hrs) in monkey at 10 mg/kg, po; format: ADME, organism-based, Macaca mulatta; parameters: time < 24 hr, dose 10 mg/kg, route oral; conditions: rhesus monkey, plasma
# [33] = Tmax in monkey at 10 mg/kg, po; format: ADME, organism-based, Macaca mulatta; parameters: dose 10 mg/kg, route oral; conditions: rhesus monkey, in vivo
# [34] = Oral bioavailability in rat at 50 mg/kg; format: ADME, organism-based; conditions: in vivo
# [35] = Cmax in rat at 50 mg/kg, po; format: ADME, organism-based; parameters: dose 50 mg/kg, route oral; conditions: in vivo
# [36] = AUC (0 to 24 hrs) in rat at 50 mg/kg, po; format: ADME, organism-based; parameters: time < 24 hr, dose 50 mg/kg, route oral; conditions: plasma
# [37] = Tmax in rat at 50 mg/kg, po; format: ADME, organism-based; parameters: dose 50 mg/kg, route oral; conditions: in vivo
# [38] = Oral bioavailability in mouse at 25 mg/kg; format: ADME, organism-based; conditions: in vivo
# [39] = AUC (0 to 24 hrs) in mouse at 25 mg/kg, po; format: ADME, organism-based; parameters: time < 24 hr, dose 25 mg/kg, route oral; conditions: plasma
# [40] = Cmax in mouse at 25 mg/kg, po; format: ADME, organism-based; parameters: dose 25 mg/kg, route oral; conditions: in vivo
# [41] = Tmax in mouse at 25 mg/kg, po; format: ADME, organism-based; parameters: dose 25 mg/kg, route oral; conditions: in vivo
# [42] = Volume of distribution at steady state in monkey at 1 mg/kg, iv; format: ADME, organism-based, Macaca mulatta; parameters: dose 1 mg/kg, route intravenous; conditions: rhesus monkey, in vivo, read-out: Vdss
# [43] = Terminal half life in monkey at 1 mg/kg, iv; format: ADME, organism-based, Macaca mulatta; parameters: dose 1 mg/kg, route intravenous; conditions: rhesus monkey, in vivo, read-out: beta t1/2 (converted)
# [44] = Total clearance in monkey at 1 mg/kg, iv; format: ADME, organism-based, Macaca mulatta; parameters: dose 1 mg/kg, route intravenous; conditions: rhesus monkey, in vivo
# [45] = Volume of distribution at steady state in rat at 5 mg/kg, iv; format: ADME, organism-based; parameters: dose 5 mg/kg, route intravenous; conditions: in vivo, read-out: Vdss
# [46] = Terminal half life in rat at 5 mg/kg, iv; format: ADME, organism-based; parameters: dose 5 mg/kg, route intravenous; conditions: in vivo, read-out: beta t1/2 (converted)
# [47] = Total clearance in rat at 5 mg/kg, iv; format: ADME, organism-based; parameters: dose 5 mg/kg, route intravenous; conditions: in vivo
# [48] = Volume of distribution at steady state in mouse at 5 mg/kg, iv; format: ADME, organism-based; parameters: dose 5 mg/kg, route intravenous; conditions: in vivo, read-out: Vdss
# [49] = tested on: 22Rv1 (Homo sapiens); test: Antitumor activity against human 22Rv1 cells xenografted in mouse assessed as tumor growth inhibition at 25 to 50 mg/kg, po qd up to 32 days; conditions: dose mg/kg 25-50
# Chain of Fibroblast growth factor receptor 1 (P11362 whole entry): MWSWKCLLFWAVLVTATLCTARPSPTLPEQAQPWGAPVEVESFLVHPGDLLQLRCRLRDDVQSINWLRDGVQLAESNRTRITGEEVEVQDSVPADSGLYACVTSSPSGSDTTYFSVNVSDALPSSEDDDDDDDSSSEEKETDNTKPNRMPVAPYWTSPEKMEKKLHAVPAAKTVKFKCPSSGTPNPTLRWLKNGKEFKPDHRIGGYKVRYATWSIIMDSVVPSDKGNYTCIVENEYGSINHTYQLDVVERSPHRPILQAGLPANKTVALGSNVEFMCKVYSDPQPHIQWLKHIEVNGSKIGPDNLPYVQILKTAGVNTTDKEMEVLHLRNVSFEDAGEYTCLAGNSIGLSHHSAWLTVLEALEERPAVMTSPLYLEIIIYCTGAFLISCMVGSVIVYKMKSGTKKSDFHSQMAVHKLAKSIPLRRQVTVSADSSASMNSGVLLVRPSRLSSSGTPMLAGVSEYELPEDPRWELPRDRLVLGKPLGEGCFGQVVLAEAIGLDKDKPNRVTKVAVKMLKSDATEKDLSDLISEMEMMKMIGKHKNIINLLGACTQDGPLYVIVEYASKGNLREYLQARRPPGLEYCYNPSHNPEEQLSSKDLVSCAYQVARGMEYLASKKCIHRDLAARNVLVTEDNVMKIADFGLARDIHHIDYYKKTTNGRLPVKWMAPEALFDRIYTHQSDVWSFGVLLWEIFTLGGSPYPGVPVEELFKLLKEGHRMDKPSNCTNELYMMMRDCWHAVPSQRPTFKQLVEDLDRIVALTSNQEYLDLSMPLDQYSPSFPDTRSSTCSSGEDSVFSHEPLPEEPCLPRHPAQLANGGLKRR
# Chain of Cyclin-dependent kinase 4 (P11802 whole entry): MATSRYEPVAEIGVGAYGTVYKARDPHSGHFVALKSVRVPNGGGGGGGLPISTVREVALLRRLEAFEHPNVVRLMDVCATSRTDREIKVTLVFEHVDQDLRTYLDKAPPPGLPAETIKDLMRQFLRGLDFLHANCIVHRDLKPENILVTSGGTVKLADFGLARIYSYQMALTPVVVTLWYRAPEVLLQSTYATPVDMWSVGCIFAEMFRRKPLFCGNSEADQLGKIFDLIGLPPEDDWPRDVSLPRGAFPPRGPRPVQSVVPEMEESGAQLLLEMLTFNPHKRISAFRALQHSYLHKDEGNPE
structure (smiles),measurement,setting,value
Cc1[nH]nc2c1N=C(c1ccccc1Cl)c1cc(N)ccc1N2,IC50,[1],303 nM
same,IC50,[2],50 nM
same,IC50,[3],88 nM
same,IC50,[4],34 nM
COc1cc2c(cc1F)C(c1ccccc1Cl)=Nc1c(n[nH]c1C)N2 [RG-1530],half-life,[5],4.32 h
same,clearance,[6],8.8 mL/min/kg
same,IC50,[7],688 nM
same,IC50,[8],200 nM
same,IC50,[9],200 nM
same,IC50,[10],200 nM
same,IC50,[11],200 nM
same,IC50,[12],200 nM
same,IC50,[13],200 nM
same,IC50,[14],58 nM
same,IC50,[2],28 nM
same,IC50,[15],49 nM
same,IC50,[16],118 nM
same,Survival,[17],>=25%
same,Survival,[18],>=25%
same,Survival,[19],>=25%
same,Survival,[20],>=25%
same,Activity,[21],Non-toxic
same,Activity,[22],Non-toxic
same,Activity,[23],Non-toxic
same,Activity,[24],Non-toxic
same,TGI,[25],inactive
same,TGI,[26],inactive
same,Activity,[27],Active
same,Activity,[28],Active
same,TGI,[29],Active
same,bioavailability,[30],22.1%
same,Cmax,[31],406 ng/mL
same,AUC(0-t) at 24 h,[32],4820 ng·h/mL
same,Tmax,[33],4 h
same,bioavailability,[34],88.7%
same,Cmax,[35],5360 ng/mL
same,AUC(0-t) at 24 h,[36],86300 ng·h/mL
same,Tmax,[37],4 h
same,bioavailability,[38],96.9%
same,AUC(0-t) at 24 h,[39],46700 ng·h/mL
same,Cmax,[40],5070 ng/mL
same,Tmax,[41],2 h
same,Vd,[42],1.59 L/kg
same,half-life,[43],3.83 h
same,clearance,[44],7.82 mL/min/kg
same,Vd,[45],3.22 L/kg
same,half-life,[46],4.7 h
same,clearance,[47],8.78 mL/min/kg
same,Vd,[48],3.12 L/kg
same,TGI,[49],98%
